Drawing on BindingDB's records for doi:10.1016/0960-894X(96)00069-8 (1996), this text covers kon for one compound.

This test concerns the target Carbonic anhydrase 2 (Homo sapiens, UniProt P00918). The test can be described thus: Kinetic constant for binding human carbonic anhydrase II ([…]). To be noted: read-out: kon (M-1-s-1).

Structures are written as SMILES.

On to `NS(=O)(=O)c1ccc(C(=O)NCC(=O)O)cc1` [(4-Sulfamoyl-benzoylamino)-acetic acid], for which the kon is 3.61e+07 M⁻¹ s⁻¹.

By kon is commonly meant the second-order rate constant of association.
